Experimental data as given in patent publication US7648966B2, “Mannose-6-phosphonate compounds for the treatment of inflammatory diseases” (Pharmaxis Pty Limited, priority 2003, dated 2010).

System: MBP-specific T lymphocyte cell lines migrating across rat brain endothelial cell monolayer
Experiment: Inhibition of T-lymphocyte migration across rat brain endothelial cell layer (Transwell, 51Cr-labeled cells)
Type: cell-based, Lewis rats
Conditions: Rattus norvegicus, T-cell; 10 mM in upper well; 6 hours; compared with negative control; read-out: % inhibition (±SEM) of T cell migration
Procedure: Preparation of Brain Endothelial Cells (ECs)
Vascular ECs were isolated from rat brain capillaries of 6 to 8 week old Lewis rats according to the method of Risau, W et al., 1990, J. Cell Biol. 110:1757-1766 (which is incorporated herein by reference). Colonies of ECs were purified from astroglial cells and pericytes using anti-Thy1.1-antibody and complement-mediated lysis to remove unwanted Thy1.1+ cells.
The EC colonies were grown, using conventional methods, in Dulbecco's Modified Eagle's Medium (DMEM)-high glucose, supplemented, with 20% fetal calf serum (FCS), glutamine, pyruvate, nonessential amino acids, HEPES buffer and antibiotics (kanamycin, amphotericin), and heparin (all from GIBCO). Cultures were supplemented with 150 μg/ml “endothelial growth supplement” from Collaborative Biomedical Products. Upon reaching confluence, EC cultures were washed with 0.2% EDTA in phosphate buffered saline (PBS), trypsinized (Trypsin-EDTA, 0.1% final concentration), washed and re-treated with anti-Thy1.1 antibody for 40 min, washed and incubated with complement sufficient to lyse all Thy1.1+ cells (Behringwerke, AG, Marburg, Germany) at room temperature.
ECs were then plated on Matrigel®-coated 6.5 mm Transwells, […] (Corning Costar Corporation, Cambridge, Mass.). Presence of ECs and confluence of the monolayer were checked by measuring the electrical resistance (World Precision Instruments, New Haven, U.S.A., model EVOM-G) and by staining with FITC-labeled phalloidin (Sigma).
Myelin Basic Protein (MBP)-Specific T Cell Lines
To study the effect of agents of the present invention on T lymphocyte migration, MBP-specific T lymphocyte cell lines were generated according to the method of Ben-Nun et al., Europ. J. Immunol. 11:195-199 (1981); incorporated herein by reference) starting with lymphocytes from the LNs of Lewis rats that had been immunized with MBP in complete Freund's adjuvant (CFA). These cells were used for migration studies during the first 4 days of their propagation in IL-2-containing medium, following MBP restimulation in the presence of antigen-presenting cells (irradiated spleen or thymus cells from normal Lewis rats).
These stimulated T lymphocytes were radiolabeled with ^51Cr (Na^51Cr04, 37 MBq/ml, Amersham, UK) for 30 minutes at 37° C. with occasional agitation, they were then washed three times with DMEM and placed into the upper chamber of the Transwells at 5×10^5 cells in 100 μl of “migration medium.” Test and control substance were included in the upper wells at final concentrations of 0.1, 1 and 10 mM. Cell migration was assessed visually by light microscopy to gauge progress of the experiment. The experiment was terminated after 6 hours, whereupon the undersurface of the membrane filters were rinsed twice with 100 μl of ice-cold PBS-0.2% EDTA and combined with the medium of the lower chamber of the well. The combined material was counted for radioactivity in a gamma counter (Packard Auto-Gamma 5650 (Downer's Grove Ill., USA) gamma counter. Each “treatment” group was run in triplicate (test agent, control agent (glucose 6-phosphate) and no treatment).
Inhibition values are in comparison with the negative control.

Cc1ccc(O[C@H]2O[C@H](CCP(=O)(O)O)[C@@H](O)[C@H](O)[C@@H]2O)c(C)c1
inhibition at 10000 µM: 90 ± 4%
